Laboratory results taken from patent US7964560B2, “Hepatitis C virus inhibitors” (Bristol-Myers Squibb Company, priority 2008, dated 2011).
Like-named read-outs stand apart in the source and are kept apart here.

Experiments:
[1] = target: T1, human liver cathepsin B (Homo sapiens, UniProt P07858); assay: Specificity assay, cathepsin B; format: biochemical
T1 construct: purchased Sigma, EMDbiosciences; host or cells: human liver
Experimental: The specificities of compounds of the present disclosure were determined against a variety of serine proteases: human neutrophil elastase (HNE), porcine pancreatic elastase (PPE) and human pancreatic chymotrypsin and one cysteine protease: human liver cathepsin B. In all cases a 96-well plate format protocol using a fluorometric Amino-Methyl-Coumarin (AMC) substrate specific for each enzyme was used as described previously (PCT Patent Application No. WO 00/09543) with some modifications to the serine protease assays. All enzymes were purchased from Sigma, EMDbiosciences while the substrates were from Bachem, Sigma and EMDbiosciences.
Compound concentrations varied from 100 to 0.4 μM depending on their potency. The enzyme assays were each initiated by addition of substrate to enzyme-inhibitor pre-incubated for 10 min at room temperature and hydrolysis to 15% conversion as measured on CYTOFLUOR®.
100 mM NaOAC (Sodium Acetate) pH 5.5, 3% DMSO, 1 mM TCEP (Tris(2-carboxyethyl)phosphine hydrochloride), 5 nM Cathepsin B (enzyme stock activated in buffer containing 20 mM TCEP before use), and 2 μM Z-FR-AMC diluted in H2O.
The percentage of inhibition was calculated using the formula: [1−((UVinh−UVblank)/(UVctl−UVblank))]×100
A non-linear curve fit was applied to the inhibition-concentration data, and the 50% effective concentration (IC50) was calculated by the use of Excel XLfit software.

[2] = target: T2, HCV NS3/4A protease complex, BMS strain (UniProt P27958, species not given/STRAIN_BMS); assay: FRET peptide assay to monitor HCV NS3/4A proteolytic activity (BMS strain); format: biochemical, Hepatitis C virus (genotype 1a); details: Table 2, NS3/4A BMS strain, numeric values
T2 construct: said of H77 and J4L6S; fused on or other part: three-lysine solubilising tail at the end of NS4A (printed for the H77 and J4L6S constructs; probably the same for BMS)
From the text: (§1) HCV […] protease complexes, derived from the BMS strain, H77 strain or J4L6S strain, were generated, as described below. These purified recombinant proteins were generated for use in a homogeneous assay (see below) to provide an indication of how effective compounds of the present disclosure would be in inhibiting HCV NS3 proteolytic activity.
(§2) Serum from an HCV-infected patient was obtained from Dr. T. Wright, San Francisco Hospital. An engineered full-length cDNA (compliment deoxyribonucleic acid) template of the HCV genome (BMS strain) was constructed from DNA fragments obtained by reverse transcription-PCR (RT-PCR) of serum RNA (ribonucleic acid) and using primers selected on the basis of homology between other genotype 1a strains. From the determination of the entire genome sequence, a genotype 1a was assigned to the HCV isolate according to the classification of Simmonds et al. (See Simmonds, P. et al., J. Clin. Microbiol., 31(6), 1493-1503 (1993)). […] The infectious clones, H77 (1a genotype) and J4L6S (1b genotype) were obtained from R. Purcell (NIH) and the sequences are published in GENBANK® (AAB67036, see Yanagi, M. et al., Proc. Natl. Acad. Sci. U.S.A., 94(16):8738-8743 (1997); AF054247, see Yanagi, M. et al., Virology, 244(1):161-172 (1998)).
(§3) The H77 and J4L6S strains were used for production of recombinant NS3/4A protease complexes. DNA encoding the recombinant HCV NS3/4A protease complex (amino acids 1027 to 1711) for these strains were manipulated as described by P. Gallinari et al. (see Gallinari, P. et al, Biochemistry, 38(17):5620-5632 (1999)). Briefly, a three-lysine solubilizing tail was added at the 3′-end of the NS4A coding region. The cysteine in the P1 position of the NS4A-NS4B cleavage site (amino acid 1711) was changed to a glycine to avoid the proteolytic cleavage of the lysine tag. Furthermore, a cysteine to serine mutation was introduced by PCR at amino acid position 1454 to prevent the autolytic cleavage in the NS3 helicase domain. The variant DNA fragment was cloned in the pET21b bacterial expression vector (Novagen) and the NS3/4A complex was expressed in Escherichia. coli strain BL21 (DE3) (Invitrogen) following the protocol described by P. Gallinari et al. (see Gallinari, P. et al., J. Virol., 72(8):6758-6769 (1998)) with modifications. Briefly, the NS3/4A protease complex expression was induced with 0.5 millimolar (mM) Isopropyl β-D-1-thiogalactopyranoside (IPTG) for 22 hours (h) at 20° C. A typical fermentation (1 Liter (L)) yielded approximately 10 grams (g) of wet cell paste. The cells were resuspended in lysis buffer (10 mL/g) consisting of 25 mM N-(2-hydroxyethyl)piperazine-N′-(2-ethane sulfonic acid) (HEPES), pH 7.5, 20% glycerol, 500 mM sodium chloride (NaCl), 0.5% Triton X-100, 1 microgram/milliliter (“μg/mL”) lysozyme, 5 mM magnesium chloride (MgCl2), 1 μg/ml DnaseI, 5 mM β-mercaptoethanol (βME), protease inhibitor-ethylenediamine tetraacetic acid (EDTA) free (Roche), homogenized and incubated for 20 minutes (min) at 4° C. The homogenate was sonicated and clarified by ultra-centrifugation at 235000 g for 1 hour (h) at 4° C. Imidazole was added to the supernatant to a final concentration of 15 mM and the pH adjusted to 8.0. The crude protein extract was loaded on a Nickel-Nitrilotriacetic acid (Ni-NTA) column pre-equilibrated with buffer B (25 mM HEPES, pH 8.0, 20% glycerol, 500 mM NaCl, 0.5% Triton X-100, 15 mM imidazole, 5 mM βME). The sample was loaded at a flow rate of 1 mL/min. The column was washed with 15 column volumes of buffer C (same as buffer B except with 0.2% Triton X-100). The protein was eluted with 5 column volumes of buffer D (same as buffer C except with 200 mM Imidazole).
(§4) NS3/4A protease complex-containing fractions were pooled and loaded on a desalting column Superdex-S200 pre-equilibrated with buffer D (25 mM HEPES, pH 7.5, 20% glycerol, 300 mM NaCl, 0.2% Triton X-100, 10 mM βME). Sample was loaded at a flow rate of 1 mL/min. […]
T2 sequence (P27958 1027-1657, stated change not applied, one chain of several): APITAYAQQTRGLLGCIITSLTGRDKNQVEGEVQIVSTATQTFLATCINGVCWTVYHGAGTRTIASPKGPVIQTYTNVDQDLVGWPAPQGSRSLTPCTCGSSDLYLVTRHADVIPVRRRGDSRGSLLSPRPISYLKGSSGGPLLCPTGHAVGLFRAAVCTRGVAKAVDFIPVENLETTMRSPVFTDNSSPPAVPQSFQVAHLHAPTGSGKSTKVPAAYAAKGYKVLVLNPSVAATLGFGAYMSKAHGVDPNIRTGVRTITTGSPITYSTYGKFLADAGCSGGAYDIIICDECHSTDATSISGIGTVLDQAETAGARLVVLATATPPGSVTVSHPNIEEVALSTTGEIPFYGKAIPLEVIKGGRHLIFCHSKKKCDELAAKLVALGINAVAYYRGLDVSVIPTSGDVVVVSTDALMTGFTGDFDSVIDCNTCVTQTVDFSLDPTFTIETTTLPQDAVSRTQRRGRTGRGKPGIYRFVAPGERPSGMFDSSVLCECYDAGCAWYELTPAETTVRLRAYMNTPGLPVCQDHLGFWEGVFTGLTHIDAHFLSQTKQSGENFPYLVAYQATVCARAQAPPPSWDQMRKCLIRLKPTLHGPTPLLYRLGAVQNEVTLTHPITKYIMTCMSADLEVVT

[3] = target: T3, HCV NS3/4A protease complex, BMS strain (UniProt P27958, species not given/STRAIN_BMS); assay: as above; format: biochemical, Hepatitis C virus (genotype 1a); details: read-out: IC50 against the NS3/4A BMS strain in the enzyme assay; BMS strain
T3 construct: other: BMS strain; said of H77 and J4L6S; fused on or other part: three-lysine solubilising tail at the end of NS4A (printed for the H77 and J4L6S constructs; probably the same for BMS)
From the text: as §1, §2, §3, §4
T3 sequence (P27958 1027-1657, stated change not applied, one chain of several): as above

[4] = target: T4, HCV NS3/4A protease complex, J4L6S strain (Hepatitis C virus genotype 1b, UniProt O92972, C1454S/C1711G); assay: FRET peptide assay to monitor HCV NS3/4A proteolytic activity (J4L6S strain); format: biochemical, Hepatitis C virus (1b genotype)
T4 construct: DNA encoding the recombinant HCV NS3/4A protease complex (amino acids 1027 to 1711) for these strains; His tag (inferred from pET21b vector and Ni-NTA purification); made in house; host or cells: Escherichia coli BL21 (DE3), pET21b
From the text: as §1, §2
The H77 and J4L6S strains were used for production of recombinant NS3/4A protease complexes. […]

T4 sequence (O92972 1027-1711 C1454S/C1711G, one chain of several): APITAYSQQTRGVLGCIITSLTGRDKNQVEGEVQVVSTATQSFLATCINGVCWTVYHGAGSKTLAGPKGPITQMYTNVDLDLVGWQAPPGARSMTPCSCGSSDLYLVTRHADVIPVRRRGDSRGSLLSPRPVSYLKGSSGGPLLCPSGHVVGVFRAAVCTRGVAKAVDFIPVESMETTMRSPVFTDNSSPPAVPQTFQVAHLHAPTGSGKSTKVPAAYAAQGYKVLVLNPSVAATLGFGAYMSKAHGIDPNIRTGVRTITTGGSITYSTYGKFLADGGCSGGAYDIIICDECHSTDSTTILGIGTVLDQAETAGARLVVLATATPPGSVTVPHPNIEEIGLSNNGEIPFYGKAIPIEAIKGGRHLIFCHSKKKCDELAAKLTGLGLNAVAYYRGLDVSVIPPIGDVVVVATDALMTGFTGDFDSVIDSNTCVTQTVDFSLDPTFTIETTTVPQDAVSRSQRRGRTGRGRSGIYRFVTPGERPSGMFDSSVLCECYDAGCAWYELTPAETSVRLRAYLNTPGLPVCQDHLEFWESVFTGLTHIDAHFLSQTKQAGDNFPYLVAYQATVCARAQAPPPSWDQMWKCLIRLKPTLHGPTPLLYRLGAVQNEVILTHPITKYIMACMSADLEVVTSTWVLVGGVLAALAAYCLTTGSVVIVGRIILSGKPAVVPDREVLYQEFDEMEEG

C=C[C@@H]1C[C@]1(NC(=O)[C@@H]1C[C@@](SCCCC)(c2ccc(-c3ccccc3)cc2)CN1C(=O)[C@@H](NC(=O)OC(C)(C)C)C(C)(C)C)C(=O)NS(=O)(=O)C1CC1 [Example 1, tert-butyl (S)-1-((2S,4R)-4-(biphenyl-4-yl)-4-(butylthio)-2-((1R,2S)-1-(cyclopropylsulfonylcarbamoyl)-2-vinylcyclopropylcarbamoyl)pyrrolidin-1-yl)-3,3-dimethyl-1-oxobutan-2-ylcarbamate]
IC50 [1]: 7500 nM | IC50 [2]: 3 nM | IC50 [3]: 4.6 nM | IC50 [4]: 1.1 nM
